This is an account of results in patent US20220340650A1, “COMBINATION THERAPY WITH CGRP ANTAGONISTS” (Allergan Pharmaceuticals International Limited, priority 2019, published 2022).

Entries after “also recorded” stand apart in the source; their conditions may differ.

Data set [1] in a line: Phase 1b trial NCT04179474, safety and tolerability (adverse events), erenumab arm (Part 1). Further details: species or system human. To be noted: in vivo. Here is the method: (§1) A two-part, multi-center, open-label, phase 1b trial (NCT04179474) in 40 adults (aged 18-50 years) diagnosed with migraine was conducted to evaluate the impact of erenumab or galcanezumab on the pharmacokinetics (PK), safety, and tolerability of ubrogepant in patients with migraine.
(§2) This open-label, multicenter trial enrolled adults diagnosed for greater than or equal to one year with migraine not on preventive treatment. Participants were assigned to an erenumab arm (Part 1) or a galcanezumab arm (Part 2). In each arm, participants received ubrogepant 100 mg on day 1 (without an antibody). On day 8, participants received the assigned monoclonal antibody: single subcutaneous (SC) erenumab 140 mg injection (Part 1) or galcanezumab 240 mg (2 SC 120 mg injections) (Part 2). Ubrogepant 100 mg was administered once daily on days 12-15. Participants were followed for 30 days.
(§3) Of 40 enrolled participants, 20 were included in part 1 (n=20 ubrogepant, n=19 erenumab, and n=19 co-administered ubrogepant and erenumab) and 20 were included in part 2 (n=20 ubrogepant, n=20 galcanezumab, and n=19 co-administered ubrogepant and galcanezumab).
(§4) PK parameters, derived from plasma ubrogepant concentrations in blood collected at prespecified time points over 24 hours post-dose on days 1 and 12, included area under the curve from time 0 to time t (AUC0-t) or to infinity (AUC0-∞); peak plasma concentration (Cmax), time to Cmax (Tmax); and apparent terminal half life (t1/2). Safety outcomes included incidence of adverse events (AEs; daily and through follow-up), and laboratory values, vital signs, and electrocardiogram (ECG) results (at prespecified timepoints pre- and post-dose). Log-transformed Cmax, AUC0-t, and […] , for ubrogepant with and without erenumab or galcanezumab with 90% CI were constructed.

Data set [2] is described as follows: Phase 1b trial NCT04179474, plasma ubrogepant pharmacokinetics, erenumab arm (Part 1). To be noted: for half-life: read-out: t1/2, mean (converted). It counts as in vivo, human. Here is the method:
as §1, §2, §3, §4

Data set [3] in a line: Phase 1b trial NCT04179474, safety and tolerability (adverse events), galcanezumab arm (Part 2). Also noted: species or system human. Particulars: in vivo. Here is the method: as §1, §2, §3, §4
A short description of data set [4]: Phase 1b trial NCT04179474, plasma ubrogepant pharmacokinetics, galcanezumab arm (Part 2). It counts as in vivo, human. Particulars: for AUC(0-t): 100 mg. Here is the method:
as §1, §2
Of 40 enrolled participants, 20 were included in part 1 (n=20 ubrogepant, n=19 erenumab, and n=19 co-administered ubrogepant and erenumab) and 20 were included in part 2 (n=20 ubrogepant, n=20 galcanezumab, […]).
as §4

Another data set has as its system CYP enzymes. To be noted: general statement, no test described; cited from earlier work.
The mark [5] stands for this setting: erenumab arm, ubrogepant 100 mg alone, day 1, n = 20.
Where [6] appears, read: galcanezumab arm, ubrogepant 100 mg alone, day 1, n = 20.

The Cmax is the peak of the concentration-time curve. The term Tmax denotes the time from dosing to the highest level. `C[C@@H]1[C@H](c2ccccc2)C[C@H](NC(=O)c2cnc3c(c2)C[C@@]2(C3)C(=O)Nc3ncccc32)C(=O)N1CC(F)(F)F` [Ubrogepant, ubrogepant]: in data set [1] (human), the “Abdominal Pain, participants” value amounted to 0 participants; the “Constipation, participants” value is given as 0 participants; the “Flatulence, participants” value is on record as 0 participants; the “Headache, participants” value came out at 1 participants. In data set [1] (human), the “Headache, participants (%)” value is on record as “(5.0) %”; the “Nasopharyngitis, participants” value was 1 participants; the “Nasopharyngitis, participants (%)” value is listed as “(5.0) %”; the “Nausea, participants” value was 0 participants. In data set [1] (human), the “Somnolence, participants” value was 1 participants; the “Somnolence, participants (%)” value is “(5.0) %”; the “TEAEs, participants (%)” value is recorded as “(35.0) %”; the “Treatment Related AEs, participants (%)” value was “(10.0) %”. For the same molecule, in data set [1] (human), the “Upper Abdominal Pain, participants” value came out at 0 participants. In addition, the “safety concerns on co-administration” value in data set [1] is “no safety concerns were identified”. In addition, in data set [2] (setting [5]), the “CL/F, mean” value is reported as 57.4 L/h and the “t1/2, mean” value was found to be 4.6 h. Further, the AUC(0-t) in data set [2] (human, plasma, oral, erenumab arm, ubrogepant 100 mg alone, day 1, read-out: AUC0-t, geometric LSM) stood at 1780 ng·h/mL. In data set [2] (human, plasma, oral, erenumab arm, ubrogepant 100 mg alone, day 1, read-out: AUC0-∞, geometric LSM), the AUC(0-inf) was found to be 1810 ng·h/mL. Moreover, the Cmax in data set [2] (human, plasma, oral, erenumab arm, ubrogepant 100 mg alone, day 1, read-out: Cmax, geometric LSM) came out at 431 ng/mL. For the same molecule, the AUC(0-t) in data set [2] (human, plasma, other: extravascular administration, erenumab arm, ubrogepant 100 mg alone, day 1, n = 20, read-out: AUC0-t, mean) was 1840 ng·h/mL. The AUC(0-inf) in data set [2] (human, plasma, other: extravascular administration, erenumab arm, ubrogepant 100 mg alone, day 1, n = 20, read-out: AUC0-∞, mean) is 1880 ng·h/mL. In addition, the Cmax in data set [2] (human, plasma, other: extravascular administration, erenumab arm, ubrogepant 100 mg alone, day 1, n = 20, read-out: Cmax, mean) was determined as 459 ng/mL. Besides, in data set [2] (human, plasma, other: extravascular administration, erenumab arm, ubrogepant 100 mg alone, day 1, n = 20, read-out: VZ/F, mean), the Vd/F came out at 437 L. Also, the half-life in data set [2] (human, plasma, other: extravascular administration, erenumab arm, ubrogepant 100 mg alone, day 1, n = 20) is 5.3 h. Further, the half-life in data set [2] (human, plasma, erenumab arm, ubrogepant 100 mg day 12, after SC erenumab 140 mg on day 8, n = 19) was 5.3 h. Moreover, the Tmax in data set [2] (human, plasma, erenumab arm, ubrogepant 100 mg day 12, after SC erenumab 140 mg on day 8, n = 19, read-out: tmax, median) came out at 1.5 h. The “change in ubrogepant PK (Cmax, AUC0-t, AUC0-∞) after coadministration with erenumab versus alone” value in data set [2] (ubrogepant 100 mg, erenumab 140 mg SC) is “no significant change; also recorded: minimally elevated; also recorded: unchanged”. Also, in data set [3] (human), the “Abdominal Discomfort, participants” value is recorded as 0 participants; the “Dizziness, participants” value is 0 participants; the “Headache, participants” value is given as 0 participants; the “Hiccups, participants” value is listed as 0 participants. For the same molecule, in data set [3] (human), the “TEAEs, participants (%)” value is on record as “(10.0) %” and the “Upper Abdominal Pain, participants” value came out at 0 participants. Moreover, the “safety concerns on co-administration” value in data set [3] is given as “no safety concerns were identified”. Besides, in data set [4] (setting [6]), the “AUC0-∞, mean” value amounted to 1732.2 ng·h/mL; the “CL/F, mean” value was 72.9 L/h; the “Cmax, mean” value was determined as 415.3 ng/mL; the “t1/2, mean” value came out at 4.6 h. In addition, in data set [4] (human, plasma, oral, galcanezumab arm, ubrogepant 100 mg alone, day 1, n = 20, read-out: AUC0-t, mean), the AUC(0-t) came to 1700 ng·h/mL. Besides, the AUC(0-t) in data set [4] (human, plasma, oral, galcanezumab arm, ubrogepant 100 mg alone, day 1, read-out: AUC0-t, geometric LSM) turned out to be 1510 ng·h/mL. The Vd/F in data set [4] (human, plasma, oral, galcanezumab arm, ubrogepant 100 mg alone, day 1, n = 20, read-out: VZ/F, mean) is 569 L. Moreover, the AUC(0-inf) in data set [4] (human, plasma, oral, galcanezumab arm, ubrogepant 100 mg alone, day 1, read-out: AUC0-∞, geometric LSM) stood at 1540 ng·h/mL. In data set [4] (human, plasma, oral, galcanezumab arm, ubrogepant 100 mg alone, day 1, read-out: Cmax, geometric LSM), the Cmax stood at 359 ng/mL. Moreover, in data set [4] (human, plasma, oral, galcanezumab arm, ubrogepant 100 mg day 12, after SC galcanezumab 240 mg on day 8, n = 20), the time of peak concentration (Tmax) amounted to 1.5 h. Moreover, the half-life in data set [4] (human, plasma, oral, galcanezumab arm, ubrogepant 100 mg day 12, after SC galcanezumab 240 mg on day 8, n = 20, read-out: t1/2, mean (converted)) is 5 h. The “change in ubrogepant PK (Cmax, AUC0-t, AUC0-28) after coadministration with galcanezumab versus alone” value in data set [4] (ubrogepant 100 mg, galcanezumab 240 mg SC) is “no significant change; also recorded: unchanged”. For the same molecule, in data set [4] (vs ubrogepant alone), the “change in ubrogepant Cmax with galcanezumab coadministration” value is listed as “unchanged”, the “increase in ubrogepant AUC0-t with galcanezumab coadministration” value amounted to 5% and the “increase in ubrogepant AUC0-∞ with galcanezumab coadministration” value was determined as 5%.

B1: galcanezumab (antibody, chains of the INN, looked up, V domains shown)
VH: QVQLVQSGAEVKKPGSSVKVSCKASGYTFGNYWMQWVRQAPGQGLEWMGAIYEGTGKTVYIQKFADRVTITADKSTSTAYMELSSLRSEDTAVYYCARLSDYVSGFGYWGQGTTVTVSS
VL: DIQMTQSPSSLSASVGDRVTITCRASKDISKYLNWYQQKPGKAPKLLIYYTSGYHSGVPSRFSGSGSGTDFTLTISSLQPEDFATYYCQQGDALPPTFGGGTKVEIK
notes: long-acting CGRP antagonist antibody that targets the CGRP ligand
In the case of B1, the “metabolism by CYP enzymes” value with CYP enzymes is on record as “not metabolized by CYP enzymes”. Moreover, in data set [3], the “Abdominal Discomfort, participants” value is 0 participants; the “Dizziness, participants” value stood at 0 participants; the “Headache, participants” value was 3 participants; the “Headache, participants (%)” value is listed as “(15.0) %”. In addition, in data set [3], the “Hiccups, participants” value is listed as 1 participants; the “Hiccups, participants (%)” value was “(5.0) %”; the “TEAEs, participants (%)” value is given as “(15.0) %”; the “Treatment-related AEs, participants (%)” value is “(15.0) %”. Also, in data set [3], the “Upper Abdominal Pain, participants” value worked out at 0 participants.

B2: erenumab (antibody, chains of the INN, looked up, V domains shown)
VH: QVQLVESGGGVVQPGRSLRLSCAASGFTFSSFGMHWVRQAPGKGLEWVAVISFDGSIKYSVDSVKGRFTISRDNSKNTLFLQMNSLRAEDTAVYYCARDRLNYYDSSGYYHYKYYGMAVWGQGTTVTVSS
VL: QSVLTQPPSVSAAPGQKVTISCSGSSSNIGNNYVSWYQQLPGTAPKLLIYDNNKRPSGIPDRFSGSKSGTSTTLGITGLQTGDEADYYCGTWDSRLSAVVFGGGTKLTVL
For B2, in data set [1], the “Abdominal Pain, participants” value is 0 participants; the “Constipation, participants” value is 0 participants; the “Flatulence, participants” value turned out to be 1 participants; the “Flatulence, participants (%)” value is “(5.3) %”. For the same molecule, in data set [1], the “Headache, participants” value is 6 participants; the “Headache, participants (%)” value is “(31.6) %”; the “Nasopharyngitis, participants” value was 0 participants; the “Nausea, participants” value is 0 participants. Further, in data set [1], the “Somnolence, participants” value was 0 participants; the “TEAEs, participants (%)” value is “(42.1) %”; the “Treatment Related AEs, participants (%)” value is listed as “(36.8) %”; the “Upper Abdominal Pain, participants” value was 0 participants. The “metabolism by CYP enzymes” value in the data set with CYP enzymes is “not metabolized by CYP enzymes”.
